From patent US20070276032A1, “Use of 8-Prenylnaringenin for Hormone Replacement Therapy” (priority 2003, published 2007) come the findings set out here.

Common to all, as to type: in vivo, Sprague-Dawley rats
Experiment [1] in a line: Body weight, 8-PN racemic, 2S(−) 8-PN and estradiol hemihydrate in ovariectomized rats (Example 4). To be noted: OVX rats; s.c. once a day, 28 days; 20 mg/kg/d in HP-β-CD. Here is the method:
The aim of the study was to directly compare the effects of Prenylnaringenin (racemate) and 2S(−) 8-Prenylnaringenin to the effects of estradiol hemihydrate on bone mineral density and uterine weight on 3-month-old ovariectomized rats using identical formulations. In addition, the effects of estradiolhemihydrate in two vehicles (oily, aqueous) were examined for influence of formulations. The substances were administered subcutaneously(s.c.) seven days a week beginning the day after ovariectomy. At the end of the study, uterine weight and bone mineral density (BMD) of tibia were measured.
Forty-one female Sprague-Dawley rats, 12-14 weeks of age were randomized into six groups, 6-8 animals in each. Five groups were ovariectomized (OVX) and one group was sham-operated (SHAM). Treatments started on the day following operation and continued for 28 days. The animals were treated s.c. once a day seven times a week as follows. Group 1 (SHAM vehicle group) and group 2 (OVX vehicle group) were given the vehicle 30% hydroxypropyl-β-cyclodextrin (HP-β-CD). Groups 3 and 4 were administered 4 μg/kg/d of estradiol hemihydrate in vehicle benzyl benzoate/ricinus oil (B/R) and in vehicle HP-β-CD, respectively. Groups 5 and 6 were given 20 mg/kg/d of 2S(−)8-Prenylnaringenin and racemic 8-Prenylnaringenin, respectively, both in vehicle HP-β-CD. At the end of the study, left tibiae were excised for the ex vivo BMD […] were taken from all dosing solutions on the first and last day of use.
Vehicle 1 (used in the groups 1 and 2): 30% hydroxypropyl-β-cyclodextrin and 0.3% NaCl (w/v), 5% ethanol (v/v) in Aqua sterilisata, pH 7.4.
Vehicle 2 (used when preparing dosing solutions of the groups 4, 5 and 6): 30% hydroxypropyl-β-cyclodextrin and 0.3% NaCl (w/v) in Aqua sterilisata, pH 7.4.
Vehicle 3 (used when preparing a dosing solution of the group 3): benzyl benzoate/ricinus oil (B/R) 1+4, v/v.

Experiment [2] can be described thus: Body weight, 2S(−) 8-PN in ovariectomized rats (Example 3). Conditions: OVX rats, s.c. once a day, 7 times a week, 4 weeks. From the text: (§1) A total of 30 female 13-14-week-old Sprague-Dawley rats were used in the study. The animals were randomized into 5 groups, with 6 rats/group. Group 1 was sham-operated (SHAM) and groups 2-5 were ovariectomized (OVX).
The mean body weight of the animals was 271 g (SD 9, SE 2) before operation. Treatments with the vehicle or test substance started on the day following operation. The animals in the SHAM group received the vehicle, 30% hydroxypropyl-β-cyclodextrin s.c., and in the OVX groups either the vehicle or 2S(−) 8-PN at nominal doses of 0.67 mg/kg/d, 1.77 mg/kg/d or 18 mg/kg/d s.c. Treatments continued for 4 weeks; the dosing frequency was seven times a week. The animals were sacrificed one day after the last dosing. At the end of the study, left tibiae were excised for ex vivo BMD measurement (pQCT) at proximal tibia and uteri were excised for the determination of absolute and relative weights. In addition, samples for the determination of 2S(−)8-Prenylnaringenin concentration were taken from all dosing solutions on the day when they were prepared and on the last day of use. The data of body weights, relative uterine weights and BMD were analyzed with one-way analysis of variance.

The test system of the next experiment is ovariectomized rats. Description: Relative uterine weight, 2S(−) 8-PN in ovariectomized rats (Example 3). To be noted: OVX rats; for Relative uterus weight, Mean: s.c. 7 times a week. How it is done:
The aim of the study was to examine bone and uterine effects of a 4-week treatment with 2S(−) 8-Prenylnaringenin (8-PN) in 3-month-old ovariectomized rats. […] At the end of the study, uterine weight and ex vivo bone mineral density (BMD) of tibia were measured.
as §1
Treatments with the vehicle or test substance started on the day following operation. […] The animals were sacrificed one day after the last dosing. At the end of the study, left tibiae were excised for ex vivo BMD measurement (pQCT) at proximal tibia and uteri were excised for the determination of absolute and relative weights. In addition, samples for the determination of 2S(−)8-Prenylnaringenin concentration were taken from all dosing solutions on the day when they were prepared and on the last day of use. The data of body weights, relative uterine weights and BMD were analyzed with one-way analysis of variance.
Relative uterine weight was calculated as percentage of body weight

Consider `CC(C)=CCc1c(O)cc(O)c2c1O[C@H](c1ccc(O)cc1)CC2=O` [2S(−)8-PN, 2S(−) 8-Prenylnaringenin], for which the “Body weight at The end (bw4b)” value in experiment [1] is reported as 289(6) g. In addition, the “The change in Body weight (bw4b-bw0)” value in experiment [1] was 24(2) g; in experiment [2] (0.67 mg/kg/d), 53 (7) g; in experiment [2] (1.77 mg/kg/d), 35 (5) g; in experiment [2] (18 mg/kg/d), 33 (4) g. Besides, the “Body weight at the end (bw4b)” value in experiment [2] (0.67 mg/kg/d) was 323 (11) g; in experiment [2] (1.77 mg/kg/d), 305 (7) g; in experiment [2] (18 mg/kg/d) it was 304 (5) g. Also, in the experiment with ovariectomized rats (at the same bone effective dose), the “effect on the uterus compared with 17β-estradiol” value was “much lower effect on the uterus than 17β-estradiol at the same bone effective dose”. Moreover, the “increase of relative uterine weight compared to ovariectomy” value with ovariectomized rats (dose range 0.67-18 mg/kg/d s.c., 4 weeks) was “less than twofold”. The relative uterine weights in the experiment with ovariectomized rats (dose range 0.67-18 mg/kg/d, SHAM group 0.194%) was 0.054-0.065%. In addition, the “Relative uterus weight, Mean” value with ovariectomized rats (4 weeks, 0.67 mg/kg/d) turned out to be 0.054%; with ovariectomized rats (4 weeks, 1.77 mg/kg/d), 0.063%; in the experiment with ovariectomized rats (4 weeks, 18 mg/kg/d), 0.065%.
